Measurements published in PMC10835732, “Pharmacokinetics of Hydroxytyrosol and Its Sulfate and Glucuronide Metabolites after the Oral Administration of Table Olives to Sprague-Dawley Rats” (Journal of Agricultural and Food Chemistry, 2024).
Like-named read-outs stand apart in the source and are kept apart here. Marks after values point to notes of the source that are not given here.

Legend:
[1] = cited from earlier work; for share represented by hydroxytyrosol sulfates: ref Kotronoulas et al. 39
[2] = Plasma pharmacokinetics (noncompartmental analysis) after single oral administration of Arbequina table olives; assay type: in vivo, Sprague-Dawley rats; details: for AUC0–∞ / Cmax/D / AUC0–∞/D / AUCt/D / Cl/F·fm (apparent clearance of metabolite) / MRT0–∞ / Vdarea/F·fm (apparent volume of distribution of metabolite, terminal phase) / Vss/F·fm (apparent steady-state volume of distribution of metabolite) / t1/2λz (apparent elimination half-life) / λz (apparent elimination rate constant) / AUCt / Cmax: geometric mean (95% CI); for Cmax/D: D = dose of hydroxytyrosol in nmol; for AUC0–∞/D / AUCt/D: D in nmol; for Tmax: median (min, max); for AUCt: time zero up to 8 h; for Cmax / percentage of the AUC of each compound divided by the AUC of the sum of all of them: plasma; for Cmax: read-out: Cmax; for half-life (t1/2λz) / mean residence time (MRT0–∞): oral table olives; for percentage of the AUC of each compound divided by the AUC of the sum of all of them: both doses (similar ratios between doses)
Method: The experiments were performed using Sprague–Dawley rats (n = 13) randomly divided into two groups, the 30 olives group (n = 6) that received the dose of 3.85 g/kg and the 60 olives group (n = 7), which was given the dose of 7.70 g/kg. The freshly prepared homogeneous suspensions were given to overnight fasted rats by oral gavage (18-gauge × 76 mm, ref FFSS-186-76, Instech Laboratories, Inc., Plymouth Meeting, PA). The volume of administration was 10 mL/kg. After the single administration of Arbequina table olives, blood was obtained at 30, 60, 90, 120, 240, 360, and 480 min from each animal. Samples were withdrawn from the lateral saphenous vein and placed into Microvette CB 300 K2 EDTA-K2 (Sarstedt, Granollers, Spain) coated tubes.[31] At each time point, 0.40 mL of blood was collected, meaning that a maximum of 2.4 mL was obtained from each animal. […] Blood corresponding to 480 min was taken by a cardiac puncture with the animal under terminal anesthesia. Plasma was immediately obtained by centrifugation at 1500g at 4 °C for 15 min (Centrifuge Megafuge 1.0R, Heraeus, Boadilla, Spain) and kept at −20 °C until analysis.
Hydroxytyrosol and its metabolites in plasma were determined by liquid–liquid extraction followed by LC-MS/MS analysis as previously described.[11] Briefly, 200 μL of plasma was mixed with 10 μL of freshly prepared 10% ascorbic acid followed by 10 μL of 0.5% acetic acid and 10 μL of 2-(3-hydroxyphenyl) ethanol (10 μM, I.S.). Then, 2 mL of ethyl acetate was added to the samples that were vigorously mixed in a vortex (5 min), placed into an ultrasonic bath (10 min), and centrifuged at 1500g at 4 °C (15 min) (Centrifuge Megafuge 1.0R). A second extraction of the pellet with 2 mL of ethyl acetate was carried out. Subsequently, the two pooled supernatants were evaporated to dryness, reconstituted with 100 μL of 80% methanol, placed into amber vials, and immediately analyzed by LC-MS/MS.
The plasmatic concentrations were calculated by the interpolation of the peak area ratio of hydroxytyrosol versus I.S. on a calibration curve. Calibration standards were constructed with blank plasma obtained by cardiac puncture from overnight fasted rats that had never received either table olives or hydroxytyrosol. […] Results were expressed in nmol per liter of plasma (nmol/L). The method was validated following the EMA guidelines[33] at six different concentrations ranging from 0 to 250 nmol/L analyzed on three different days.
Individual PK of hydroxytyrosol and its metabolites were estimated from the plasma concentrations versus time profiles of each animal, through a noncompartmental analysis (NCA) with Phoenix-64 (Build 8.3.4.295, Certara, Princeton, N.J., USA). All concentrations of each pharmacokinetic profile were considered for NCA because the values obtained were above the LOQ. Peak plasma concentration (Cmax) and time to peak plasma concentration (Tmax) were determined by visual inspection of the pharmacokinetic profiles. The apparent elimination rate constant (λz) was estimated from the terminal slope of the semilogarithmic concentration–time curve. The apparent elimination half-life (t1/2λz) was calculated as t1/2z = 0.693/λz. The area under the plasma concentration–time curve from time zero to the last experimental time (AUCt) with analyte concentrations above the LOQ, was calculated by the linear-log trapezoidal rule. The area from time zero to infinity (AUC0–∞) was calculated by adding to the AUCt value the extrapolated area calculated as the ratio between the predicted concentration (Ct) at the last sampling time with concentrations above the LOQ and λz. The mean residence time (MRT0–∞) was given by the ratio of the area under the first-moment curve (AUMC0–∞) to the area under the zero-moment curve (AUC0–∞). The ratio indicating the relative exposure of each metabolite with respect to hydroxytyrosol (AUC0–∞m/AUC0–∞) was also calculated for all of the metabolites. […]

[3] = 30 olives group (hydroxytyrosol 2.95 mg/kg oral), listed as hydroxytyrosol sulfate M1-a
[4] = 60 olives group (hydroxytyrosol 5.89 mg/kg oral), listed as hydroxytyrosol sulfate M1-a
[5] = both doses (30 and 60 olives groups)
[6] = 30 olives group (hydroxytyrosol 2.95 mg/kg oral), listed as hydroxytyrosol sulfate M1-b
[7] = 60 olives group (hydroxytyrosol 5.89 mg/kg oral), listed as hydroxytyrosol sulfate M1-b

hydroxytyrosol sulfate
share in rat plasma ([1]; after phenolic extract from olive cake containing 10.35 mg/kg of hydroxytyrosol, ref Serra et al. 23): 92% | share represented by hydroxytyrosol sulfates ([1]; oral 10 mg/kg of hydroxytyrosol to rats): 60% | share represented by hydroxytyrosol sulfates ([1]; oral 100 mg/kg of hydroxytyrosol to rats): 75%

hydroxytyrosol sulfate [M1-a]
AUC0–∞ ([2]; 30 olives group (3.85 g olives/kg, hydroxytyrosol 2.95 mg/kg oral), listed as hydroxytyrosol sulfate M1-a): 4765 (3491, 6504)^a min·nmol/L | Cmax/D [2, 3]: 0.00899 (0.00522, 0.01546)^a | AUC0–∞/D [2, 3]: 0.90 (0.68, 1.23)^a | AUCt/D [2, 3]: 0.82 (0.60, 1.11)^a | Cl/F·fm (apparent clearance of metabolite) [2, 3]: 4.02 (2.95, 5.48)^a L/min/kg | MRT0–∞ [2, 3]: 173 (121.9, 245.5)^a min | Vdarea/F·fm (apparent volume of distribution of metabolite, terminal phase) [2, 3]: 491 (190, 1264)^a L/kg | Vss/F·fm (apparent steady-state volume of distribution of metabolite) [2, 3]: 616 (339, 1120)^a L/kg | t1/2λz (apparent elimination half-life) [2, 3]: 130.1 (64.5, 262.2)^a min | λz (apparent elimination rate constant) [2, 3]: 0.0053 (0.0026, 0.011)^a 1/min | Tmax [2, 3]: 45.5 (30, 120)^a min | AUCt [2, 3]: 4321 (3152, 5924)^a min·nmol/L | Cmax ([2]; 30 olives group: single oral 3.85 g destoned olives/kg (hydroxytyrosol 2.95 mg/kg), n = 6, listed as hydroxytyrosol sulfate M1-a): 47.3 nM | AUC0–∞ ([2]; 60 olives group (7.70 g olives/kg, hydroxytyrosol 5.89 mg/kg oral), listed as hydroxytyrosol sulfate M1-a): 13133 (9812, 17577)^b min·nmol/L | Cmax/D [2, 4]: 0.00872 (0.00562, 0.01354)^a | AUC0–∞/D [2, 4]: 1.18 (0.84, 1.64)^a | AUCt/D [2, 4]: 1.02 (0.75, 1.38)^a | Cl/F·fm (apparent clearance of metabolite) [2, 4]: 2.91 (2.17, 3,89)^a L/min/kg | MRT0–∞ [2, 4]: 188.3 (143.6, 246,9)^a min | Vdarea/F·fm (apparent volume of distribution of metabolite, terminal phase) [2, 4]: 479 (290, 790)^a L/kg | Vss/F·fm (apparent steady-state volume of distribution of metabolite) [2, 4]: 548 (380, 789)^a L/kg | t1/2λz (apparent elimination half-life) [2, 4]: 129.4 (83.0, 201.6)^a min | λz (apparent elimination rate constant) [2, 4]: 0.0054 (0.0034, 0.0083)^a 1/min | Tmax [2, 4]: 36 (30, 42)^a min | AUCt [2, 4]: 11376 (8674, 14919)^b min·nmol/L | Cmax ([2]; 60 olives group: single oral 7.70 g destoned olives/kg (hydroxytyrosol 5.89 mg/kg), n = 7, listed as hydroxytyrosol sulfate M1-a): 97.3 nM | AUC ratio of metabolite versus parent hydroxytyrosol (AUC0–∞m/AUC0–∞) [2, 5]: around 1.5 | Vss/F·fm and Vdarea/F·fm [2, 5]: approximately 500 L/kg | half-life (t1/2λz) [2, 5]: approximately 2 h | mean residence time (MRT0–∞) [2, 5]: around 3 h | percentage of the AUC of each compound divided by the AUC of the sum of all of them [2]: 12%

hydroxytyrosol sulfate [M1-b]
AUC0–∞ ([2]; 30 olives group (3.85 g olives/kg, hydroxytyrosol 2.95 mg/kg oral), listed as hydroxytyrosol sulfate M1-b): 28084 (20399, 38664)^a min·nmol/L | Cmax/D [2, 6]: 0.0582 (0.0343, 0.0985)^a | AUC0–∞/D [2, 6]: 5.33 (3.89, 7.31)^a | AUCt/D [2, 6]: 5.11 (3.78, 6.90)^a | Cl/F·fm (apparent clearance of metabolite) [2, 6]: 0.68 (0.49, 0.94)^a L/min/kg | MRT0–∞ [2, 6]: 141.4 (118.1, 169.3)^a min | Vdarea/F·fm (apparent volume of distribution of metabolite, terminal phase) [2, 6]: 85.0 (57.2, 126)^a L/kg | Vss/F·fm (apparent steady-state volume of distribution of metabolite) [2, 6]: 96.4 (62.6, 148)^a L/kg | t1/2λz (apparent elimination half-life) [2, 6]: 86.4 (67.7, 110)^a min | λz (apparent elimination rate constant) [2, 6]: 0.0080 (0.0063, 0.01024)^a 1/min | Tmax [2, 6]: 30.50 (30,120)^a min | AUCt [2, 6]: 26907 (19824, 36520)^a min·nmol/L | Cmax ([2]; 30 olives group: single oral 3.85 g destoned olives/kg (hydroxytyrosol 2.95 mg/kg), n = 6, listed as hydroxytyrosol sulfate M1-b): 306 nM | AUC0–∞ ([2]; 60 olives group (7.70 g olives/kg, hydroxytyrosol 5.89 mg/kg oral), listed as hydroxytyrosol sulfate M1-b): 80006 (65787, 97299)^b min·nmol/L | Cmax/D [2, 7]: 0.0491 (0.0333, 0.0726)^a | AUC0–∞/D [2, 7]: 7.17 (5.62, 9.14)^a | AUCt/D [2, 7]: 6.05 (4.76, 7.70)^a | Cl/F·fm (apparent clearance of metabolite) [2, 7]: 0.48 (0.39, 0.58)^a L/min/kg | MRT0–∞ [2, 7]: 198.8 (139.0, 284.3)^a min | Vdarea/F·fm (apparent volume of distribution of metabolite, terminal phase) [2, 7]: 75.1 (45.7, 123)^a L/kg | Vss/F·fm (apparent steady-state volume of distribution of metabolite) [2, 7]: 83.5 (61.6, 112.9)^a L/kg | t1/2λz (apparent elimination half-life) [2, 7]: 129.3 (74.1, 225.6)^a min | λz (apparent elimination rate constant) [2, 7]: 0.0054 (0.0031, 0.0094)^a 1/min | Tmax [2, 7]: 38 (30, 100)^a min | AUCt [2, 7]: 67548 (53591, 85140)^b min·nmol/L | Cmax ([2]; 60 olives group: single oral 7.70 g destoned olives/kg (hydroxytyrosol 5.89 mg/kg), n = 7, listed as hydroxytyrosol sulfate M1-b): 548 nM | Vss/F·fm and Vdarea/F·fm [2, 5]: ~90 L/kg | half-life (t1/2λz) [2, 5]: approximately 2 h | mean residence time (MRT0–∞) [2, 5]: around 3 h | percentage of the AUC of each compound divided by the AUC of the sum of all of them [2]: approximately 73%
